Source: patent US10597388B2, “Pyridazinone herbicides” (FMC CORPORATION, priority 2014, dated 2020)

How the values were obtained:
Assay type in all cases: in vivo
[1] = test system: ducksalad (Heteranthera limosa); assay: Test B flooded paddy test; conditions: 250 g ai/ha, Flood; visual rating on scale of 0 to 100 where 0 is no effect and 100 is complete control; 13 to 15 d after treatment
Procedure, shortened: (§1)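 Plants grown to the 2-leaf stage. At treatment, pots were flooded to 3 cm above the soil, compound was applied directly to the paddy water, and that depth was held throughout. After 13 to 15 d in the greenhouse, response was rated visually against controls on a 0 (no effect) to 100 (complete control) scale.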

rice (Oryza sativa) = assay: Test B flooded paddy test; conditions: 250 g ai/ha, Flood; visual rating on scale of 0 to 100 where 0 is no effect and 100 is complete control; 13 to 15 d after treatment
Procedure, shortened: as §1

[2] = test system: sedge, umbrella (small-flower umbrella sedge, Cyperus difformis); assay: Test B flooded paddy test; conditions: 250 g ai/ha, Flood; visual rating on scale of 0 to 100 where 0 is no effect and 100 is complete control; 13 to 15 d after treatment
Procedure, shortened: as §1

[3] = test system: barnyardgrass (Echinochloa crus-galli); assay: Test B flooded paddy test; conditions: 250 g ai/ha, Flood; visual rating on scale of 0 to 100 where 0 is no effect and 100 is complete control; 13 to 15 d after treatment
Procedure, shortened: as §1

kochia (Kochia scoparia) = assay: Test A greenhouse herbicide test, pre- and postemergence
Procedure, shortened: (§2)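 Seeds in loam–sand blend received a preemergence directed soil spray; plants at 2–10 cm, one- to two-leaf stage, received postemergence sprays. Compounds in a non-phytotoxic solvent with surfactant. After about 10 d in a greenhouse, injury rated visually versus untreated controls on a 0–100 scale (100 = complete control).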

[4] = test system: foxtail, giant (giant foxtail, Setaria faberii); assay: as above
Procedure, shortened: as §2

[5] = test system: wheat (Triticum aestivum); assay: as above; conditions: Postemergence
Procedure, shortened: as §2

[6] = test system: pigweed (Amaranthus retroflexus); assay: as above
Procedure, shortened: as §2

corn (Zea mays) = assay: as above; conditions: Postemergence
Procedure, shortened: as §2

[7] = test system: ryegrass, Italian (Italian ryegrass, Lolium multiflorum); assay: as above
Procedure, shortened: as §2

[8] = test system: ragweed (common ragweed, Ambrosia elatior); assay: as above
Procedure, shortened: as §2

[9] = test system: barnyardgrass (Echinochloa crus-galli); assay: as above
Procedure, shortened: as §2

[10] = test system: blackgrass (Alopecurus myosuroides); assay: Test A greenhouse herbicide test, postemergence
Procedure, shortened: (§3)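 Visual injury score, 0 (no effect) to 100 (complete control), versus untreated controls roughly 10 d after postemergence spray; plants at one- to two-leaf stage, 2 to 10 cm tall, in loam soil and sand, kept in greenhouse.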

[11] = test system: galium (catchweed bedstraw, Galium aparine); assay: Test A greenhouse herbicide test, postemergence
Procedure, shortened: as §3

[12] = Postemergence, 125 g ai/ha, 0 to 100 scale, 0 no effect, 100 complete control
[13] = Postemergence, 500 g ai/ha, visual rating after approx. 10 d, 0 to 100 scale (0 no effect, 100 complete control)
[14] = Preemergence, 125 g ai/ha, visual injury rating, 0 to 100 scale (0 no effect, 100 complete control), approx. 10 d
[15] = Preemergence, 500 g ai/ha, 0 to 100 scale where 0 is no effect and 100 is complete control
[16] = 125 g ai/ha, 0 to 100 scale, 0 no effect, 100 complete control
[17] = 500 g ai/ha, visual rating after approx. 10 d, 0 to 100 scale (0 no effect, 100 complete control)
[18] = Preemergence, second run of lines under the 500 g ai/ha head, rate not given, 0 to 100 scale

SMILES | Plant response rating, Ducksalad [1] | Plant response rating, Rice (rice (Oryza sativa)) | Plant response rating, Sedge, Umbrella [2] | Plant response rating, Barnyardgrass [3] | Plant response rating, Kochia (kochia (Kochia scoparia); [12]) | Plant response rating, Kochia (kochia (Kochia scoparia); [13]) | Plant response rating, Kochia (kochia (Kochia scoparia); [15]) | Plant response rating, Foxtail, Giant [4, 12] | Plant response rating, Foxtail, Giant [4, 13] | Plant response rating, Foxtail, Giant [4, 15] | Plant response rating, Wheat [5, 16] | Plant response rating, Wheat [5, 17] | Plant response rating, Pigweed [6, 12] | Plant response rating, Pigweed [6, 13] | Plant response rating, Pigweed [6, 15] | Plant response rating, Corn (corn (Zea mays); [16]) | Plant response rating, Corn (corn (Zea mays); [17]) | Plant response rating, Ryegrass, Italian [7, 12] | Plant response rating, Ryegrass, Italian [7, 13] | Plant response rating, Ryegrass, Italian [7, 15] | further results
Cc1nn(C)c(=O)c(-c2ccc(Cl)c3ccccc23)c1OS(=O)(=O)N(C)C [Compound 185] | 0 | 0 | 0 | 0 | 70 | 100 | 10 | 0 | 20 | 30 | 0 | 0 | 50 | 90 | 60 | 0 | 30 | 70 | 80 | 40 | Plant response rating, Kochia (kochia (Kochia scoparia); [14]): 0; Plant response rating, Foxtail, Giant [4, 14]: 0; Plant response rating, Pigweed [6, 14]: 20; Plant response rating, Ryegrass, Italian [7, 14]: 0; Plant response rating, Ragweed [8, 12]: 10; Plant response rating, Ragweed [8, 13]: 50; Plant response rating, Ragweed [8, 14]: 0; Plant response rating, Ragweed [8, 15]: 40; Plant response rating, Barnyardgrass [9, 12]: 10; Plant response rating, Barnyardgrass [9, 13]: 30; Plant response rating, Barnyardgrass [9, 14]: 0; Plant response rating, Barnyardgrass [9, 15]: 50; Plant response rating, Blackgrass [10, 16]: 0; Plant response rating, Blackgrass [10, 17]: 20; Plant response rating, Galium [11, 16]: 70; Plant response rating, Galium [11, 17]: 90
Cc1nn(C)c(=O)c(-c2ccc(Cl)c3ccccc23)c1OP(C)(C)=O [Compound 187] | 0 | 20 | 0 | 0 | 90 | 100 | 100 | 50 | 80 | 70 | 0 | 30 | 70 | 90 | 100 | 0 | 30 | 100 | 100 | 100 | Plant response rating, Kochia (kochia (Kochia scoparia); [18]): 60; Plant response rating, Foxtail, Giant [4, 18]: 20; Plant response rating, Pigweed [6, 18]: 90; Plant response rating, Ryegrass, Italian [7, 18]: 100; Plant response rating, Ragweed [8, 12]: 100; Plant response rating, Ragweed [8, 13]: 100; Plant response rating, Ragweed [8, 15]: 80; Plant response rating, Ragweed [8, 18]: 70; Plant response rating, Barnyardgrass [9, 12]: 30; Plant response rating, Barnyardgrass [9, 13]: 80; Plant response rating, Barnyardgrass [9, 15]: 90; Plant response rating, Barnyardgrass [9, 18]: 70; Plant response rating, Blackgrass [10, 16]: 40; Plant response rating, Blackgrass [10, 17]: 70; Plant response rating, Galium [11, 16]: 90; Plant response rating, Galium [11, 17]: 100
Cc1cc(C)c2sc(C)c(-c3c(OCC#N)c(C)nn(C)c3=O)c2c1 [Compound 188] | 0 | 0 | 0 | 0 | 10 | 20 | 20 | 20 | 80 | 90 | 0 | 0 | 50 | 80 | 90 | 0 | 0 | 20 | 80 | 80 | Plant response rating, Kochia (kochia (Kochia scoparia); [18]): 20; Plant response rating, Foxtail, Giant [4, 18]: 10; Plant response rating, Pigweed [6, 18]: 60; Plant response rating, Ryegrass, Italian [7, 18]: 20; Plant response rating, Ragweed [8, 12]: 20; Plant response rating, Ragweed [8, 13]: 50; Plant response rating, Ragweed [8, 15]: 30; Plant response rating, Ragweed [8, 18]: 10; Plant response rating, Barnyardgrass [9, 12]: 10; Plant response rating, Barnyardgrass [9, 13]: 20; Plant response rating, Barnyardgrass [9, 15]: 30; Plant response rating, Barnyardgrass [9, 18]: 10; Plant response rating, Blackgrass [10, 16]: 10; Plant response rating, Blackgrass [10, 17]: 60; Plant response rating, Galium [11, 16]: 70; Plant response rating, Galium [11, 17]: 90
